Assays:
STHdh^111Q/111Q cells [1] = assay: Induction and measurement of apoptosis (annexin V binding / active caspase-3, FACS) in HD knock-in striatal cells; conditions: for protection from apoptosis (annexin V binding, caspase 3 activation): 0.1-1-5-10-20 μM Liga20, knock-in striatal cells WT or HD, FIG. 13
Method: Conditionally-immortalized rat striatal ST14A cells and ST14A cells expressing an N-terminal fragment of mHtt containing 120 glutamines (N548-120Q) were kindly provided by Dr. E. Cattaneo (University of Milan, Italy) and maintained in culture at the permissive temperature (33° C.) as previously reported (Rigamonti et al., 2001). Conditionally-immortalized mouse striatal knock-in cells expressing endogenous levels of wild-type (STHdh^Q7/Q7) or mHtt (STHdh^Q111/Q111) were a gift from Dr. M. E. MacDonald (Massachusetts General Hospital, Boston, Mass., USA) and were maintained as previously described (Trettel et al., 2000).
In order to induce apoptosis immortalized cells were incubated at 39° C. […] For apoptosis detection, at the end of each treatment cells were collected, washed with PBS and incubated with PE-conjugated annexin V (BD Biosciences) according to the manufacturer's instructions. For the simultaneous detection of active caspase-3 and annexin V binding, cells were first labeled with annexin V as indicated above, then fixed in 4% paraformaldehyde and permeabilized with 0.3% saponin in PBS containing 4% donkey serum.
GM1 (Alexis) at the indicated concentrations was added to the cells in serum-free medium at the time when cells were shifted at 39° C. to induce apoptosis.
K252a (200 nM, Calbiochem) was used to inhibit TrK receptor-mediated signaling. […] Both inhibitors were administered to the cells 2 hours before induction of apoptosis and administration of GM1.

STHdh^7Q/7Q cells [2] = assay: Induction and measurement of apoptosis (annexin V binding / active caspase-3, FACS) in wild-type knock-in striatal cells; type: cell-based, mouse
Method: To inhibit ganglioside synthesis, wild-type cells were incubated for 3 days in medium containing 10 μM 1-phenyl-2-palmitoylamino-3-morpholino-1-propanol (PPMP, Matreya, Pleasant Gap, Pa., USA). Cells were then washed two times with PBS and incubated for 12 hours at 39° C. in serum-free medium to induce apoptosis.

STHdh^7Q/7Q cells [3] = type: cell-based, mouse
[4] = tested on: Htt phosphorylation at Ser13 and S16; assay: PPMP treatment and immunoblotting of total and phospho-Htt in striatal knock-in cells; type: cell-based, mouse; conditions: 10 μM PPMP for 3 days
Method: Knock-in striatal cells expressing wild-type Htt (7/7) or mHtt (111/111) (Trettel, F., et al. (2000)) were incubated for 3 days in medium containing 10 μM 1-phenyl-2-palmitoylamino-3-morpholino-1-propanol (PPMP, Matreya, Pleasant Gap, Pa., USA) to inhibit ganglioside synthesis. Cells were then washed two times with PBS and lysed in 50 mM Tris, 1% NP-40, 1 mM EDTA, 10 mM NaF, 1 mM Na2VO4 and 1:100 protease inhibitor cocktail (SIGMA-Aldrich). […] HRP-conjugated secondary antibodies were used at 1:3,000 dilution (Bio-Rad Laboratories, Hercules, Calif., USA). Protein bands were detected by ECL Plus and quantitated with Quantity One® software (Bio-Rad Laboratories, Hercules, Calif., USA).
In these experiments, synthesis of gangliosides was inhibited in striatal knock-in cells with PPMP, as above. Levels of total and phospho-Htt were detected in total cell lysates using immunoblotting (Panel A) with mAb2166 and N17pS13pS16 antibody, respectively. Panel B is a graph is the densitometric analysis of the immunoblot show in Panel A.

[5] = Wu et al., 2004; cited from earlier work
wild-type mice = assay: Motor behavior (rotarod and horizontal ladder task) during chronic intraventricular GM1 infusion in wild-type littermates; conditions: intraventricular infusion for 28 days
Method: (§1) The pump infused a solution of 5.6 mg GM1/ml in artificial cerebrospinal fluid (CSF) (or CSF only in control groups) into the brain ventricle at constant rate (0.25 μl/h, corresponding to 1.4 μg GM1/h or 33.6 μg GM1/day) for 28 days. […] Mice were let recovery for a week, after which motor behavior tests were performed on weekly bases.
(§2) Motor behavior was evaluated with two sensitive tests that are considered the gold-standard for analysis of HD motor deficit: rotarod and horizontal ladder test (Ferrante, R. J. (2009)) To avoid that stress and anxiety would affect motor performance, mice were acclimatized for two days to training room, instruments and tasks to perform, before measuring the actual performance in each specific task. […] Latency to fall off the rotarod in each of these sessions was measured, averaged and compared across groups. For the horizontal ladder walking test, a task that assesses loss and recovery of sensori-motor functions 16, mice were recorded with a videocamera as they walked spontaneously across the ladder. […]
(§3) The pump infused a solution of 3.6 mg GM1/ml in artificial CSF (or CSF only in control groups) into the brain ventricle at constant rate (0.25 μl/h) for 4 weeks. The amount of GM1 infused was calculated in order to achieve 50 μM final concentration in the mouse CSF. […]

YAC128 mice = assay: Motor behavior (rotarod and horizontal ladder task) during chronic intraventricular GM1 infusion in YAC128 mice
Method: as §1, §2, §3

mHtt = assay: Huntingtin immunoprecipitation and immunoblotting with anti-phospho-Ser antibody; type: cell-based, mouse; conditions: STHdh^111Q/111Q cells, 50 μM GM1 for 5 minutes
[6] = tested on: Htt phosphorylation at Ser13 and Ser16; assay: Htt phosphorylation in cerebral cortex homogenate of GM1- and CSF-infused mice (immunoblotting, pSer13Ser16 antibody); type: in vivo, mouse; conditions: YAC128 and WT littermates infused for 28 days
Method: At the end of the GM1 infusion protocol (28 days after peristaltic pump implantation), mice were euthanized. Brain cortices were dissected and homogenized in 50 mM Tris, 1% NP40, 1 mM EDTA, 10 mM NaF, 1 mM Na2VO4 and 1:100 protease inhibitor cocktail (SIGMA-Aldrich). […] Alexa680-conjugated secondary antibody were used at 1:1,000 dilution in Odyssey buffer. Imaging and analysis were performed using and Odyssey Infrared System (LiCor).
Subsequent to the experimental protocol on animals described above, the mouse brains were dissected and homogenized to examine Htt phosphorylation at Ser13 and Ser16.
In FIG. 20, YAC128 mice and WT littermates infused with CSF (vehicle) or GM1 for 28 days were sacrificed and the amount of phospho-Htt in the same amount of cerebral cortex homogenate was detected by immunoblotting with a pSer13Ser16 specific antibody.

[7] = cited from earlier work
AKT = AKT activation (phospho-AKT/AKT ratio) by immunoblotting in striatal knock-in cells; type: cell-based, mouse; conditions: for phospho-AKT/AKT ratio: 7 minutes and 6 hours after addition of GM1, serum-free medium at 39° C.
Method: FIG. 7—GM1 protective effect on striatal cells is partially mediated by AKT activation. A) Akt phosphorylation was measured 7 minutes and 6 hours after addition of GM1 in serum-free medium and incubation at 39° C. to induce cell death. Analysis of phospho-AKT/AKT ratio, indicative of AKT activation, was performed by densitometric analysis of immunoblots in three independent experiments. In each experiment, the pospho-AKT/AKT ratio measured in wild-type untreated cells (control) was arbitrarily set to 100% to which HD and GM1-treated samples were compared. Mean values±SD and representative immunoblots are shown. […] The percentage of apoptotic cells was measured by annexin V binding. Data are the mean±SD of 3 experiments, each performed in triplicate. 7/7, STHdh^7Q/7Q; 111/111, STHdh^111Q/111Q; *, p<0.05; **, p<0.001; ***, p<0.0001
Cells were scraped in 10 mM Tris-HCl, pH 7.4, containing 1% NP40, 10 mM NaF, 1 mM Na2VO4 and 1:100 protease inhibitor cocktail (SIGMA-Aldrich, St. Louis, Mo., USA) and lysed by sonication followed by incubation on ice for 30 minutes. Cell debris were removed by centrifugation at 15,000×g for 15 minutes. Protein concentration in the supernatant was measured by BCA assay (Pierce). Thirty μg of proteins were resolved on 10% SDS-PAGE and transferred to nitrocellulose membranes (Bio-Rad Laboratories, Hercules, Calif., USA). Membranes were blocked with 5% non-fat milk in TBS-T (50 mM Tris-HCl, 150 mM NaCl, pH 7.4, 0.1% Tween 20) for 1 hour and then probed overnight with primary antibodies: anti-phospho-AKT (Ser473) (1:500), anti-AKT (1:500) (both from Cell Signaling), Abcam). HRP-conjugated secondary antibodies were used at 1:3,000 dilution (Bio-Rad Laboratories, Hercules, Calif., USA). Protein bands were detected by ECL Plus (Amersham Biosciences) and analyzed with Quantity One® software (Bio-Rad Laboratories, Hercules, Calif., USA).

STHdh^111Q/111Q cells [8] = type: cell-based, mouse; conditions: 50 μM GM1, HD cells, FIG. 5C

COC(=O)[C@@]1(O)C[C@H]2O[C@]1(C)n1c3ccccc3c3c4c(c5c6ccccc6n2c5c31)C(=O)NC4 [K252a]
effect of pan-Trk inhibitor on GM1 protective activity (STHdh^111Q/111Q cells [1]; 200 nM K252a, 2 hours pre-incubation before GM1 and apoptotic stress, 7/7 and 111/111 cells, FIG. 10): GM1 protective activity was still fully preserved

CCCCCCCCCCCCCCCC(=O)NC(CN1CCOCC1)C(O)c1ccccc1 (stereo not shown) [PPMP, 1-phenyl-2-palmitoylamino-3-morpholino-1-propanol]
cell susceptibility to apoptosis after inhibition of ganglioside synthesis (STHdh^7Q/7Q cells [2]; 10 μM PPMP for 3 days, then 12 hours serum-free medium at 39° C., FIG. 6B): increased STHdh^7Q/7Q cell susceptibility to apoptosis to the levels observed in STHdh^111Q/111Q cells
plasma membrane GM1 levels after inhibition of ganglioside synthesis (STHdh^7Q/7Q cells [3]; 10 μM PPMP for 3 days, wild-type cells, FIG. 6A): reduce GM1 levels to the amount observed in STHdh^111Q/111Q cells
Htt phosphorylation at Ser13 and S16 after inhibition of ganglioside synthesis [4]: decreases levels of phosphorylation at the same amino acid residues

LIGA-20
protection from apoptosis (annexin V binding, caspase 3 activation) (STHdh^111Q/111Q cells [1]): not effective in protecting striatal cells
protection from apoptosis (annexin V binding, caspase 3 activation) (STHdh^111Q/111Q cells [1]; listed as Liga20): not protective in a genetic cell model of HD
potency relative to GM1 [5]: at least an order of magnitude more potent than GM1

ganglioside GM1
susceptibility of HD cells to apoptosis compared with wild-type cells (STHdh^111Q/111Q cells [1]; 50 μM, serum deprivation at 39° C.): restored normal susceptibility to apoptosis in HD cells
protection from apoptosis (annexin V binding, active caspase-3) (STHdh^111Q/111Q cells [1]; 50 μM, serum deprivation at 39° C., HD cells): protected both wild-type and HD cells from apoptosis
dose-dependency of GM1 anti-apoptotic action (STHdh^111Q/111Q cells [1]; knock-in striatal cells (7/7 and 111/111), 6 hours in serum-free medium at 39° C., FIG. 9): dose-dependent
protection from apoptosis (annexin V binding, active caspase-3) (STHdh^7Q/7Q cells [2]; 50 μM, serum deprivation at 39° C., wild-type cells): protected both wild-type and HD cells from apoptosis
cell survival (STHdh^7Q/7Q cells [2]; treated wild-type cells, 50 μM GM1, apoptotic conditions): cell survival was also further augmented
effect of GM1 on PPMP-induced susceptibility to apoptosis (STHdh^7Q/7Q cells [2]; wild-type cells pre-treated with 10 μM PPMP for 3 days): abolished PPMP effects
GM1 content after GM1 administration (STHdh^7Q/7Q cells [3]; 50 μM GM1, treated wild-type cells, FIG. 5C): further increase of GM1 content above their normal levels
behavioral differences GM1 versus CSF infusion (wild-type mice): No behavioral differences were noted
motor behavior compared with wild-type mice (YAC128 mice; after 13 days of GM1 infusion): indistinguishable from wild-type mice
motor behavior (rotarod, horizontal ladder task) versus CSF-infused HD mice (YAC128 mice; intraventricular infusion 0.25 μl/h for 28 days, 3 mice per group): performed significantly better than HD control mice infused with CSF
mHtt phosphorylation (phospho-Ser/mHtt) (mHtt): increased mHtt phosphorylation
phosphorylation of Htt at Ser13 and Ser16 in cerebral cortex [6]: increase in the phosphorylation of Htt at these residues
frequency of possible adverse effects such as Guillain-Barre' syndrome (GBS) ([7]; Alter, 1998): rare
safety in clinical trials ([7]; patients with stroke, Parkinson's disease, spinal cord injury): relatively safe to use
phospho-AKT/AKT ratio (AKT; STHdh^7Q/7Q cells): increased the phospho-AKT/AKT ratio
levels of active (phospho) AKT compared with wild-type (AKT; STHdh^111Q/111Q cells after GM1 administration): restored to normal
phospho-AKT/AKT ratio (AKT; STHdh^111Q/111Q cells): increased the phospho-AKT/AKT ratio
plasma membrane GM1 levels after GM1 administration (STHdh^111Q/111Q cells [8]): complete restoration of GM1 levels
